Data from patent publication US20240101531A1, “PYRIDINAMINE DERIVATIVES AND THEIR USE AS POTASSIUM CHANNEL MODULATORS” (Xenon Pharmaceuticals Inc., priority 2022, published 2024).

target: human KV7.2/KV7.3 (Homo sapiens (Human), UniProt O43525+O43526); assay: Potassium flux assay (IPG-2 AM dye); type: cell-based; conditions: TREX HEK 293 or HEK 293 cells expressing human KV7.2/KV7.3; arithmetic mean values
Summary of the method: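 HEK 293 or TREX HEK 293 cells stably expressing human KV7.2/KV7.3 (tetracycline-induced where needed), loaded with IPG-2 AM, then compound for 20 min at room temperature. Flux triggered by K challenge buffer (10 mM KCl, pH 7.4), read at 530/558 nm; EC50 from 16-point 2-fold series from 30 μM, normalised to DMSO and reference modulator.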

Compound | EC50
C#CC(C)(C)COc1ccc2c(Nc3ccc(Cl)nc3)nccc2c1 [Example 136, N-(6-chloropyridin-3-yl)-6-((2,2-dimethylbut-3-yn-1-yl)oxy)isoquinolin-1-amine] | 1 to 10 µM
Clc1ccc(Nc2nccc3cc(OCC4(C5CC5)CC4)ccc23)cn1 [Example 137, 6-([1,1′-bi(cyclopropan)]-1-ylmethoxy)-N-(6-chloropyridin-3-yl)isoquinolin-1-amine] | < 1 µM
C[C@H](Oc1ccc2c(Nc3ccc(Cl)nc3)nccc2c1)C1(F)CC1 [Example 140, (S)-N-(6-chloropyridin-3-yl)-6-(1-(1-fluorocyclopropyl)ethoxy)isoquinolin-1-amine] | < 1 µM
FC1(COc2ccc3c(Nc4ccc(Cl)nc4)nccc3c2)CCC1 [Example 141, N-(6-chloropyridin-3-yl)-6-((1-fluorocyclobutyl)methoxy)isoquinolin-1-amine] | 1 to 10 µM
N#CC(F)(COc1ccc2c(Nc3cnc(Cl)nc3)nccc2c1)C1CC1 (stereo not drawn) [Example 146, 3-((1-((2-chloropyrimidin-5-yl)amino)isoquinolin-6-yl)oxy)-2-cyclopropyl-2-fluoropropanenitrile] | < 1 µM
C[C@]1(O)CCC[C@@H](Oc2ccc3c(Nc4ccc(Cl)nc4)nccc3c2)C1 [Example 148, (1S,3R)-3-((1-((6-chloropyridin-3-yl)amino)isoquinolin-6-yl)oxy)-1-methylcyclohexan-1-ol] | < 1 µM
Cn1ccc(COc2ccc3c(Nc4ccc(Cl)nc4)nccc3c2)n1 [Example 150, N-(6-chloropyridin-3-yl)-6-((1-methyl-1H-pyrazol-3-yl)methoxy)isoquinolin-1-amine] | < 1 µM
C#CC1(COc2ccc3c(Nc4ccc(Cl)nc4)nccc3c2)CC1 [Example 151, N-(6-chloropyridin-3-yl)-6-((1-ethynylcyclopropyl)methoxy)isoquinolin-1-amine] | < 1 µM
CC(C)C1(COc2ccc3c(Nc4ccc(Cl)nc4)nccc3c2)COC1 [Example 152, N-(6-chloropyridin-3-yl)-6-((3-isopropyloxetan-3-yl)methoxy)isoquinolin-1-amine] | < 1 µM
Clc1ccc(Nc2nccc3cc(OCC4COCCO4)ccc23)cn1 (stereo not drawn) [Example 154, 6-((1,4-dioxan-2-yl)methoxy)-N-(6-chloropyridin-3-yl)isoquinolin-1-amine] | < 1 µM
OCC(F)(F)COc1ccc2c(Nc3ccc(Cl)nc3)nccc2c1 [Example 155, 3-((1-((6-chloropyridin-3-yl)amino)isoquinolin-6-yl)oxy)-2,2-difluoropropan-1-ol] | 1 to 10 µM
C[C@@H](COc1ccc2c(Nc3ccc(Cl)nc3)nccc2c1)c1cnn(C)c1 [Example 159, (R)—N-(6-chloropyridin-3-yl)-6-(2-(1-methyl-1H-pyrazol-4-yl)propoxy)isoquinolin-1-amine] | 1 to 10 µM
C[C@H](COc1ccc2c(Nc3ccc(Cl)nc3)nccc2c1)c1cnn(C)c1 [Example 160, (S)—N-(6-chloropyridin-3-yl)-6-(2-(1-methyl-1H-pyrazol-4-yl)propoxy)isoquinolin-1-amine] | 1 to 10 µM
CC#CC(C)(C)COc1ccc2c(Nc3ccc(Cl)nc3)nccc2c1 [Example 161, N-(6-chloropyridin-3-yl)-6-((2,2-dimethylpent-3-yn-1-yl)oxy)isoquinolin-1-amine] | 1 to 10 µM
CNc1cc(Nc2nccc3cc(OCC4(C)COC4)ccc23)cnc1Cl [Example 162, 2-chloro-N^3-methyl-N^5-(6-((3-methyloxetan-3-yl)methoxy)isoquinolin-1-yl)pyridine-3,5-diamine] | < 1 µM
Cc1nn(C)cc1COc1ccc2c(Nc3ccc(Cl)nc3)nccc2c1 [Example 165, N-(6-chloropyridin-3-yl)-6-((1,3-dimethyl-1H-pyrazol-4-yl)methoxy)isoquinolin-1-amine] | < 1 µM
COc1nn(C)cc1COc1ccc2c(Nc3ccc(Cl)nc3)nccc2c1 [Example 166, N-(6-chloropyridin-3-yl)-6-((3-methoxy-1-methyl-1H-pyrazol-4-yl)methoxy)isoquinolin-1-amine] | < 1 µM
Cc1ncsc1C(=O)N[C@H]1CC[C@@H](Oc2ccc3c(Nc4ccc(Cl)nc4)nccc3c2)CC1 [Example 167, N-((1s,4s)-4-((1-((6-chloropyridin-3-yl)amino)isoquinolin-6-yl)oxy)cyclohexyl)-4-methylthiazole-5-carboxamide] | 1 to 10 µM
Cc1ncc(Nc2nccc3cc(OC(C)c4cnn(C)c4)ccc23)cn1 (stereo not drawn) [Example 169, 6-(1-(1-methyl-1H-pyrazol-4-yl)ethoxy)-N-(2-methylpyrimidin-5-yl)isoquinolin-1-amine] | 1 to 10 µM

The next lines start with the values.

EC50 | Compound
< 1 µM | Clc1ccc(Nc2nccc3cc(O[C@@H]4CCC5(COC5)C4)ccc23)cn1 [Example 138, (R)-6-((2-oxaspiro[3.4]octan-6-yl)oxy)-N-(6-chloropyridin-3-yl)isoquinolin-1-amine]
1 to 10 µM | C[C@@H](Oc1ccc2c(Nc3ccc(Cl)nc3)nccc2c1)C1(F)CC1 [Example 139, (R)-N-(6-chloropyridin-3-yl)-6-(1-(1-fluorocyclopropyl)ethoxy)isoquinolin-1-amine]
≥ 30 µM | CN(c1cnc(Cl)nc1)c1nccc2cc(OCC3(F)CC3)ccc12 [Example 144, N-(2-chloropyrimidin-5-yl)-6-((1-fluorocyclopropyl)methoxy)-N-methylisoquinolin-1-amine]
< 1 µM | N#CCC1(COc2ccc3c(Nc4cnc(Cl)nc4)nccc3c2)CC1 [Example 147, 2-(1-(((1-((2-chloropyrimidin-5-yl)amino)isoquinolin-6-yl)oxy)methyl)cyclopropyl)acetonitrile]
< 1 µM | C[C@@]1(O)CCC[C@H](Oc2ccc3c(Nc4ccc(Cl)nc4)nccc3c2)C1 [Example 149, (1R,3S)-3-((1-((6-chloropyridin-3-yl)amino)isoquinolin-6-yl)oxy)-1-methylcyclohexan-1-ol]
< 1 µM | OC1CC2(C1)CC(Oc1ccc3c(Nc4ccc(Cl)nc4)nccc3c1)C2 (stereo not drawn) [Example 153, 6-((1-((6-chloropyridin-3-yl)amino)isoquinolin-6-yl)oxy)spiro[3.3]heptan-2-ol]
< 1 µM | Cc1oncc1COc1ccc2c(Nc3ccc(Cl)nc3)nccc2c1 [Example 156, N-(6-chloropyridin-3-yl)-6-((5-methylisoxazol-4-yl)methoxy)isoquinolin-1-amine]
< 1 µM | Clc1ccc(Nc2nccc3cc(OCc4ccno4)ccc23)cn1 [Example 157, N-(6-chloropyridin-3-yl)-6-(isoxazol-5-ylmethoxy)isoquinolin-1-amine]
1 to 10 µM | Clc1ccc(Nc2nccc3cc(OCc4cnc(Cc5cccnc5)o4)ccc23)cn1 [Example 158, N-(6-chloropyridin-3-yl)-6-((2-(pyridin-3-ylmethyl)oxazol-5-yl)methoxy)isoquinolin-1-amine]
< 1 µM | CC1(COc2ccc3c(Nc4cnc(Cl)c(N)c4)nccc3c2)COC1 [Example 163, 2-chloro-N^5-(6-((3-methyloxetan-3-yl)methoxy)isoquinolin-1-yl)pyridine-3,5-diamine]
1 to 10 µM | Clc1ccc(Nc2nccc3cc(OCCCCCn4cncn4)ccc23)cn1 [Example 168, 6-((5-(1H-1,2,4-triazol-1-yl)pentyl)oxy)-N-(6-chloropyridin-3-yl)isoquinolin-1-amine]
